Data from patent US10072005B2, “4-azaindole derivatives” (EISAI R&D MANAGEMENT CO., LTD., priority 2013, dated 2018).

Legend:
male Crlj: WI rats = experiment: Morris Water Maze Test in Ibotenic Acid-Induced Learning Disability Model; type: in vivo, rat; settings: for Swimming time in 4th quadrant / Frequency of entry into platform area: probe trial
Description: Ibotenic acid at 5 μg/0.5 μL was injected into both basal nuclei of 8-week old male Crlj: WI rats, and a Morris water maze test was performed 10-14 days after ibotenic acid injection. It has been reported that rats in which basal forebrain was lesioned by ibotenic acid injection show learning disability in the Morris water maze test. (Pharmacopsychiat, 1999, 32, 242-247). The test is considered a model of spatial learning and memory.
Learning trials were performed twice a day at an interval of 3 hours for 4 days (8 times in total), and probe trials were performed once the day after completion of the learning trials. Each test compound was dissolved in a 0.5% methylcellulose in water and orally administered 1 hour before the first trial on each day of the learning trials and 1 hour before the trial on the day of the probe trials.
A colorless clear acrylic platform (diameter: about 12 cm, height: about 30 cm) and a gray vinyl chloride circular pool (diameter: about 148 cm, height: about 44 cm), which was filled with water (temperature: 17-18° C.) up to a height of about 32 cm so that the platform was fully immersed in water, were used as the test device. Four quadrants were prepared at the bottom of the pool, and the platform was set at the center of 1 of the 4 quadrants (about 37 cm from the center of the pool). A light bulb was placed near the quadrant with the platform as a spatial cue.
In learning trials, the animal was put into water and goal latency and swimming distance to reach the platform were measured (measurement time: 90 seconds at the longest) by a video image behavioral analysis device (Etho Vision XT, Noldus Information Technology Inc.). When an animal reached the platform within 90 seconds and stayed on the platform for 30 seconds, it was judged that the animal recognized the position of the platform, and the measurement was finished.
In probe trials, the platform was removed from the pool. The animal was put into water, and the swimming time in the quadrant where the platform had been located in the learning trials and the frequency of entry into the platform area where the platform had been located in the learning trials were measured by Etho Vision XT.
Each value was shown as an average and a standard error (n=10). The statistical significance between a control group and a vehicle group was analyzed by the independent t-test. The statistical significance between the vehicle group and each sample group was analyzed by one-way analysis of variance and then by Dunnett's multiple comparison test. The significance level was set to 5% on both sides. […] The analysis was carried out by using SAS system (SAS Institute Japan Ltd.).

mAChR M2 = mAChR M2 (Homo sapiens (Human), UniProt P08172); experiment: In vitro cellular calcium flux assay, PAM, NAM and agonist modes, mAChR M2; type: cell-based
mAChR M2, sequence (P08172 whole entry): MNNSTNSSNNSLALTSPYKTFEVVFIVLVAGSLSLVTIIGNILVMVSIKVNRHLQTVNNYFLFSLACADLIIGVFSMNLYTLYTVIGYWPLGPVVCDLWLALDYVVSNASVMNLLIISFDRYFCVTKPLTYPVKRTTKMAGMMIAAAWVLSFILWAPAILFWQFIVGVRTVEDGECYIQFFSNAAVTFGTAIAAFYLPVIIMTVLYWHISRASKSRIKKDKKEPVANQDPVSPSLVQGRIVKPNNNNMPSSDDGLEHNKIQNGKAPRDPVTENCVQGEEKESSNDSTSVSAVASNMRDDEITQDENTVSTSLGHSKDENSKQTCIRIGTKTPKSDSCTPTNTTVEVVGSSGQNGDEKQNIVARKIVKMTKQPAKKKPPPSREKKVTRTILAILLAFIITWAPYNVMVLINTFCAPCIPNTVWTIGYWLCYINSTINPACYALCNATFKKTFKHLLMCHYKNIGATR
Description: (§1) Baby hamster kidney cells stably expressing human or rat mAChR M1 to M5 were utilised for primary and selectivity profiling activities. mAChR M2 and M4 cell lines also stably expressed the chimeric Gαqi5 G-protein.
(§2) Human mAChR M1, M3, M5 and rat M1 cells were grown in low glucose Dulbecco's Modified Eagle's Medium (DMEM) medium plus heat inactivated 10% fetal bovine serum (HI FBS) and 500 μg/ml hygromycin B^1. Human mAChR M2 and M4 cells were maintained as above with^2 the addition of 500 μg/ml G418 to the media. Cells were maintained in culture at 37° C./5% CO2 and passaged twice weekly by treatment with 0.05% Trypsin/EDTA detachment solution, centrifugation (200 g, 5 min) and re-suspension in fresh media. Following cell expansion, cells were cryopreserved at −80° C. by treatment with 0.05% Trypsin/EDTA detachment solution, centrifugation (200 g, 5 min) and re-suspension of the pellet in freezing media (90% HI FBS/10% DMSO^3) at 15E6 cells/ml^4.
(§3) Prior to assaying, cells were prepared by thawing at 37° C. in a water bath, centrifugation (200 g, 5 min) and re-suspension of the pellet in fresh media. 15000 cells per well were seeded in black, clear bottomed 384-well Greiner Bio-One plates in plating medium (DMEM/10% HI FBS) and incubated overnight at 37 C/5% CO2.
(§4) On the day of the assay, media was removed from each well and replaced with 50 μl^5 assay buffer (HBSS with 20 mM HEPES and 2.5 mM Probenecid) containing the calcium indicator, Calcium 4 (Molecular Devices). Cells were then incubated at 37° C./5% CO2 for 30 min and at room temperature.
(§5) Compound preparation was carried out by generation of 11-point, 1 in 3 serial dilution concentration response curves in 100% DMSO. Compound was then diluted 1 in 65^6 with assay buffer (HBSS with 20 mM HEPES and 2.5 mM Probenecid) prior to the addition of 10 ul^7 to the cells using a Tetra fluorometric imaging plate reader (Molecular Devices)^8. Compound driven increases in intracellular calcium flux was measured as an increase in fluorescence (494Ex, 516Em)^9.
(§6) Positive allosteric modulator pEC50 values and antagonist pIC50 values for each compound were then determined. […] The points of modification and the alternate reagents, concentrations or equipment employed in these examples were: ^1200 μg/ml hygromycin B; ^2G418 not added; ^3CELLBANKER 1; ^410E6; ^5 40 μl; ^6 1 in 99; ^7 20 μl; ^8FDSS6000 (Hamamatsu Photonics); ^9(480Ex, 540Em); ^10Spotfire (TIBCO).
(§7) Certain compounds were tested in PAM, NAM and agonist modes against mAChR M2, M3, M4 and M5.

mAChR M3 = mAChR M3 (Homo sapiens (Human), UniProt P20309); experiment: In vitro cellular calcium flux assay, PAM, NAM and agonist modes, mAChR M3; type: cell-based
mAChR M3, sequence (P20309 whole entry, looked up): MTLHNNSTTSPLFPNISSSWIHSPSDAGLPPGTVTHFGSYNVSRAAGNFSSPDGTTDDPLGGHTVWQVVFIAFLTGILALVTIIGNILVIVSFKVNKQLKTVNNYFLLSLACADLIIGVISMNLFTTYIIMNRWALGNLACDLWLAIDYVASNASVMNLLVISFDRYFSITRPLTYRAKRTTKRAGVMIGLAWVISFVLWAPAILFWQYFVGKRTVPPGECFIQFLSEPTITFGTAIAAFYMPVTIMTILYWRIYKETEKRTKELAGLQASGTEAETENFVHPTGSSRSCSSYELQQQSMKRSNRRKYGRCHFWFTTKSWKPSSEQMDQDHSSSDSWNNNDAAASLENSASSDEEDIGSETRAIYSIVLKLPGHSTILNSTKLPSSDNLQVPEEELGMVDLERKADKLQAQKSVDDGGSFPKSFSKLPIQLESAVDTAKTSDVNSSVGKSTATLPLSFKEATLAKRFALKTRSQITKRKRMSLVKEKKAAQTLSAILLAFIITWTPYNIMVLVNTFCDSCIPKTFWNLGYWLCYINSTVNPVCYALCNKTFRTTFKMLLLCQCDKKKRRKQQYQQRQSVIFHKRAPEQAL
Description: as §1, §2, §3, §4, §5, §6, §7

For `O=C(N[C@H]1CCCC[C@@H]1O)c1cn(Cc2ccc(F)cc2)c2cccnc12` [Example 5, 1-(4-Fluorobenzyl)-N-((1S,2S)-2-hydroxycyclohexyl)-1H-pyrrolo[3,2-b]pyridine-3-carboxamide], the Goal latency (male Crlj: WI rats; Trial 1, 0.1 mg/kg p.o.) was “[90 ± 0.00] sec”, the Swimming distance (male Crlj: WI rats; Trial 1, 0.1 mg/kg p.o.) was “[2152.96 ± 91.73] cm” and the Goal latency (male Crlj: WI rats; Trial 1, 0.3 mg/kg p.o.) was “[90 ± 0.00] sec”. For the same molecule, the Swimming distance (male Crlj: WI rats; Trial 1, 0.3 mg/kg p.o.) was “[2400.75 ± 122.49] cm”, the Goal latency (male Crlj: WI rats; Trial 2, 0.1 mg/kg p.o.) was “[90 ± 0.00] sec” and the Swimming distance (male Crlj: WI rats; Trial 2, 0.1 mg/kg p.o.) was “[2353.99 ± 145.71] cm”. The Goal latency (male Crlj: WI rats; Trial 2, 0.3 mg/kg p.o.) was “[89.47 ± 0.53] sec”, the Swimming distance (male Crlj: WI rats; Trial 2, 0.3 mg/kg p.o.) was “[2533.19 ± 86.87] cm” and the Goal latency (male Crlj: WI rats; Trial 3, 0.1 mg/kg p.o.) was “[78.81 ± 8.1] sec”. The Swimming distance (male Crlj: WI rats; Trial 3, 0.1 mg/kg p.o.) was “[1884.79 ± 174.8] cm”, the Goal latency (male Crlj: WI rats; Trial 3, 0.3 mg/kg p.o.) was “[75.08 ± 7.99] sec” and the Swimming distance (male Crlj: WI rats; Trial 3, 0.3 mg/kg p.o.) was “[1945.42 ± 189.94] cm”. The Goal latency (male Crlj: WI rats; Trial 4, 0.1 mg/kg p.o.) was “[79.59 ± 7.36] sec”, the Swimming distance (male Crlj: WI rats; Trial 4, 0.1 mg/kg p.o.) was “[1822.32 ± 206.29] cm” and the Goal latency (male Crlj: WI rats; Trial 4, 0.3 mg/kg p.o.) was “[60.53 ± 12.15]# sec”. The Swimming distance (male Crlj: WI rats; Trial 4, 0.3 mg/kg p.o.) was “[1592.82 ± 308.21] cm”, the Goal latency (male Crlj: WI rats; Trial 5, 0.1 mg/kg p.o.) was “[83.06 ± 4.7] sec” and the Swimming distance (male Crlj: WI rats; Trial 5, 0.1 mg/kg p.o.) was “[1918.78 ± 132.12] cm”. The Goal latency (male Crlj: WI rats; Trial 5, 0.3 mg/kg p.o.) was “[53.99 ± 10.18]## sec”, the Swimming distance (male Crlj: WI rats; Trial 5, 0.3 mg/kg p.o.) was “[1417.94 ± 229.44]## cm” and the Goal latency (male Crlj: WI rats; Trial 6, 0.1 mg/kg p.o.) was “[66.13 ± 12.22] sec”. For the same molecule, the Swimming distance (male Crlj: WI rats; Trial 6, 0.1 mg/kg p.o.) was “[1464.97 ± 308.91] cm”, the Goal latency (male Crlj: WI rats; Trial 6, 0.3 mg/kg p.o.) was “[33.09 ± 9.78]## sec” and the Swimming distance (male Crlj: WI rats; Trial 6, 0.3 mg/kg p.o.) was “[876.2 ± 203.14]## cm”. The Goal latency (male Crlj: WI rats; Trial 7, 0.1 mg/kg p.o.) was “[76.97 ± 8.11] sec”, the Swimming distance (male Crlj: WI rats; Trial 7, 0.1 mg/kg p.o.) was “[1839.16 ± 221.78] cm” and the Goal latency (male Crlj: WI rats; Trial 7, 0.3 mg/kg p.o.) was “[50.1 ± 10.02]## sec”. For the same molecule, the Swimming distance (male Crlj: WI rats; Trial 7, 0.3 mg/kg p.o.) was “[1329.27 ± 236.21]## cm”, the Goal latency (male Crlj: WI rats; Trial 8, 0.1 mg/kg p.o.) was “[67.24 ± 10.13] sec” and the Swimming distance (male Crlj: WI rats; Trial 8, 0.1 mg/kg p.o.) was “[1492.52 ± 260.05] cm”. The Goal latency (male Crlj: WI rats; Trial 8, 0.3 mg/kg p.o.) was “[38.02 ± 10.74]## sec”, the Swimming distance (male Crlj: WI rats; Trial 8, 0.3 mg/kg p.o.) was “[1020.57 ± 253.94]## cm” and the “Swimming time in 4th quadrant” value (male Crlj: WI rats; 0-30 sec., 0.1 mg/kg p.o.) was “[8.90 ± 1.02]# sec”. For the same molecule, the “Swimming time in 4th quadrant” value (male Crlj: WI rats; 0-30 sec., 0.3 mg/kg p.o.) was “[7.19 ± 1.11] sec”, the “Frequency of entry into platform area” value (male Crlj: WI rats; 0.1 mg/kg p.o.) was “[0.9 ± 0.3]” and the “Frequency of entry into platform area” value (male Crlj: WI rats; 0.3 mg/kg p.o.) was “[1.7 ± 0.5]##”. For the same molecule, the “Swimming time in 4th quadrant” value (male Crlj: WI rats; 30-60 sec., 0.1 mg/kg p.o.) was “[9.41 ± 1.80]# sec”, the “Swimming time in 4th quadrant” value (male Crlj: WI rats; 30-60 sec., 0.3 mg/kg p.o.) was “[8.48 ± 1.25] sec” and the “Swimming time in 4th quadrant” value (male Crlj: WI rats; 60-90 sec., 0.1 mg/kg p.o.) was “[7.74 ± 0.85] sec”. For the same molecule, the “Swimming time in 4th quadrant” value (male Crlj: WI rats; 60-90 sec., 0.3 mg/kg p.o.) was “[7.49 ± 1.37] sec”, the “Swimming time in 4th quadrant” value (male Crlj: WI rats; Total, 0.1 mg/kg p.o.) was “[26.05 ± 2.03]## sec” and the “Swimming time in 4th quadrant” value (male Crlj: WI rats; Total, 0.3 mg/kg p.o.) was “[23.16 ± 2.97] sec”. For the same molecule, the EC50 (mAChR M2) was > 10 µM and the EC50 (mAChR M3) was > 10 µM.
